In patent US20060286132A1, “Use of stellate ganglion block for the treatment of sexual dysfunction” (priority 2005, published 2006):

Tests used:
[1] = tested on: severe menopausal hot flashes; assay: Self-reported hot flashes pre and post stellate ganglion block in women with severe menopausal hot flashes; format: in vivo
Description: A stellate ganglion block is illustratively performed by placing the patient in the supine position (on the back) with the neck slightly extended and the jaw open. While the patient is usually conscious for the procedure, a medication such as Versed (midazolam hydrochloride), fentanyl, or other sedative is often administered, to relax the patient. A local anesthetic is also usually administered, to numb the skin and tissue down to the ganglion nerve. A needle is inserted toward the stellate ganglion. […] The needle 20 is shown inserted adjacent to the stellate ganglion 10. In the illustrative block, a contrast solution is injected through needle 20 via syringe 22, and the needle position is confirmed by fluoroscopy or other means, as are known in the art.
The anesthetic 30 is then delivered next to stellate ganglion 10 by injection via needle 20. Illustratively, 5 cc 0.375% Marcaine® (bupivacaine) may be used. However, it is understood that other anesthetics, illustratively lidocaine, morphine or other opioids, clonidine, botox, or tetracine, or a combination of anesthetic and epinephrine, may be used and that the dosage range may vary depending on the particular anesthetic and other factors, as are known in the art. Needle 20 is removed, and the patient is optionally placed in the sitting position to facilitate the spread of anesthesia inferiorly to the stellate ganglion. Illustratively, longer acting anesthetics such as bupivacaine are used, but other anesthetics may be used, as are known in the art. The stellate ganglion block may also be performed by radiofrequency lesioning, as is known in the art.
Six women suffering from severe menopausal hot flashes each received a standard stellate ganglion block (0.375% Marcaine, 5 cc), as described above. Hot flashes were assessed by self-reporting pre and post stellate ganglion block.

[2] = tested on: sexual dysfunction, including anorgasmia; assay: Sexual function after stellate ganglion block in a person with sexual dysfunction including anorgasmia; format: in vivo

CCCCN1CCCCC1C(=O)Nc1c(C)cccc1C (stereo not drawn) [Marcaine, bupivacaine]
success of initial stellate ganglion block, as evidenced by a positive Homer's syndrome and anhydrosis ([1]; 0.375% Marcaine, 5 cc, six women, initial block): successful in all six subjects
duration of complete alleviation of hot flashes ([1]; initial stellate ganglion block, 0.375% Marcaine, 5 cc, six women): 2-5 weeks
additional asymptomatic period of relief from hot flashes ([1]; second stellate ganglion block, after mild hot flashes returned): 4-18 weeks
sexual function with additional stellate ganglion blocks ([2]; additional blocks over the course of 3 years): maintain normal sexual function
sexual function following stellate ganglion block ([2]; person, block in accordance with Example 1): return of normal sexual function
effect on sexual dysfunction, block administered through C7 ([2]; variation in treatment: administration of the stellate ganglion block through C7): ineffective
